# Source: patent US7511027B2, “Method of treating hepatitis delta virus infection” (Georgetown University, priority 2000, dated 2009)
# Tests used:
# HDV [1] = conditions: in vitro; cited from earlier work
# WHV = experiment: Woodchuck model of chronic HDV infection: serum WHV DNA; type: in vivo
# Procedure: (§1) The woodchuck was used as an experimental model of chronic HDV infection to assess the effect of L-FMAU treatment on HDV replication. Woodchucks chronically infected with WHV were infected with a woodchuck-adapted HDV inoculum derived from a laboratory infectious clone. Nine of eleven infected animals were determined to have chronic HDV infection, as defined by RT/PCR-detectable HDV viremia (Niro et al. (1997) Hepatology 25, 728-734) for at least 74% of bleed dates for at least 11 months prior to the initiation of treatment. The range of duration of viremia prior to the start of the study was 11.4-20 months; the range of positive bleed dates was 74% to 100%. Animals in the treatment group (4) were given 10 mg/kg L-FMAU daily; animals in the control group (5) were given placebo. Serum samples were obtained before the initiation of treatment, and at weeks 2, 4, 8, 12, 16 and 20. Serum samples were analyzed for WHV DNA, WHV surface antigen and HDV RNA.
# HDV [2] = experiment: Woodchuck model of chronic HDV infection: serum HDV RNA; type: in vivo
# Procedure: as §1
# WHV surface antigen = experiment: Woodchuck model of chronic HDV infection: serum WHV surface antigen; type: in vivo
# Procedure: as §1
# HDV [3] = conditions: in vivo; cited from earlier work
# hepatocytes = conditions: cited from earlier work
# [4] = one animal in the treated group, animal 4543
compound,measurement,setting,value
Nc1nc2c(ncn2COCCO)c(=O)[nH]1 [Acyclovir],HDV replication,HDV [1],enhances
"Cc1cn([C@H]2O[C@@H](CO)[C@H](O)[C@H]2F)c(=O)[nH]c1=O [L-FMAU, 2′-fluoro-5-methyl-β-L-arabinofuranosyl-uridine]",decrease in serum WHV DNA,"WHV; 10 mg/kg L-FMAU daily, by 4 weeks of treatment, all treated animals (FIG. 6B)",> 10^7 fold
same,serum WHV-DNA (FIG. 6B),WHV; over twenty weeks of treatment,significant decrease
same,HDV RNA in serum,"HDV [2]; 10 mg/kg L-FMAU daily, by 16 weeks of treatment (FIG. 6A)",undetectable in ¾ treated animals
same,"HDV viremia, animal 4543",HDV [2]; [4],remained high
same,serum HDV-RNA (FIG. 6A),HDV [2]; over twenty weeks of treatment,significant decrease
same,mean serum HDV RNA,"HDV [2]; woodchucks 4878, 4879, 4883, by 8 weeks of treatment vs start of treatment and vs five untreated animals (FIG. 8)",dramatic decline
same,decrease in surface antigen levels,"WHV surface antigen; 10 mg/kg L-FMAU daily, by 12 weeks, all but one (animal 4543) of the treated animals (FIG. 6C)","~1,000 fold"
same,"levels of surface antigen, animal 4543",WHV surface antigen; [4],did not exhibit decreased levels
same,serum WHsAg (FIG. 6C),WHV surface antigen; over twenty weeks of treatment,significant decrease
same,surface antigen concentration after which HDV viremia became undetectable,"WHV surface antigen; treated animals with decreased surface antigen, sustained for remainder of treatment",less than 1 microgram/mL
same,drop of WHsAg levels during treatment,"WHV surface antigen; treated woodchucks 4878, 4879 and 4883",more than 100 fold
NC(=O)c1ncn([C@@H]2O[C@H](CO)[C@@H](O)[C@H]2O)n1 [Ribavirin],side-effects,HDV [3],severe side-effects
same,virological or biochemical parameters,HDV [3],did not significantly affect
Cc1ccc(C(=O)Nc2ccc(S(=O)(=O)O)c3cc(S(=O)(=O)O)cc(S(=O)(=O)O)c23)cc1NC(=O)c1cccc(NC(=O)Nc2cccc(C(=O)Nc3cc(C(=O)Nc4ccc(S(=O)(=O)O)c5cc(S(=O)(=O)O)cc(S(=O)(=O)O)c45)ccc3C)c2)c1 [suramin],entry of the virion into hepatocytes,hepatocytes,blocks
